ChEMBL document CHEMBL1124742 (J Med Chem, 1990)
pIC50: −log10 of the molar value.

How the values were obtained:
[1] = system: UV4; assay: In vitro cytotoxicity against transformed chinese hamster fibroblast line UV4.; assay type: functional, cell-based; details: Cricetulus griseus
[2] = system: P388; assay: Optimal dose of drug administered as a single dose in 0.1 or 0.2 mL of 30% v/v ethanol/water on day one after ip inoculation of 10e6 P388 leukemia cells; assay type: functional, Mus musculus
[3] = Evaluated for the mustard reactivity by determining rate constant for hydrolysis of mustard in aqueous acetone (K H); assay type: ADME; details: buffer
[4] = system: P388; assay: In vitro cytotoxicity against P388 murine leukemia; assay type: functional, cell-based; details: Mus musculus
[5] = organism: Cricetulus griseus; assay: Hypersensitivity factor(HF) was determined from the ratio of IC50(AA8) / IC50(UV4); assay type: functional
[6] = system: CHO-AA8; assay: In vitro cytotoxicity against transformed chinese hamster fibroblast line AA8; assay type: functional, cell-based; details: Cricetulus griseus
[7] = Evaluated for the mustard reactivity by determining rate constant for alkylation of 4-(4-nitrobenzyl)pyridine using NBP alkylation assay; assay type: ADME
[8] = system: P388; assay: In vivo percentage increase in lifespan of drug treated tumor-bearing mice at a dose of 45 mg/kg; assay type: functional; details: Mus musculus
[9] = system: P388; assay: In vivo percentage increase in lifespan of drug treated tumor-bearing mice at a dose of 225 mg/kg; assay type: functional; details: Mus musculus
[10] = system: CHO-AA8; assay: (§1) Tested for the in vitro cytotoxicity against transformed chinese hamster fibroblast line AA8; assay type: cell-based; details: Cricetulus griseus
[11] = system: P388; assay: Tested for the in vitro cytotoxicity against P388 murine leukemia; assay type: cell-based; details: Mus musculus
[12] = system: UV4; assay: Tested for the in vitro cytotoxicity against transformed chinese hamster fibroblast line UV4.; assay type: functional, cell-based; details: Cricetulus griseus
[13] = system: CHO-AA8; assay: as §1; assay type: functional, cell-based; details: Cricetulus griseus
[14] = system: P388; assay: In vivo percentage increase in lifespan of drug treated tumor-bearing mice at a dose of 20 mg/kg; assay type: functional; details: Mus musculus
[15] = system: P388; assay: In vivo percentage increase in lifespan of drug treated tumor-bearing mice at a dose of 13.3 mg/kg; assay type: functional; details: Mus musculus

Compound | pIC50 [1] | OD [2] | K H [3] | pIC50 [4] | Ratio [5] | pIC50 [6] | K NBP [7] | ILS at 45 mg/kg [8] | ILS at 225 mg/kg [9] | pIC50 [10] | pIC50 [11] | pIC50 [12] | pIC50 [13] | ILS at 20 mg/kg [14] | ILS at 13.3 mg/kg [15]
O=C(CCCCCNc1c2ccccc2nc2ccccc12)c1ccc(N(CCCl)CCCl)cc1 | 6.23 | 65 mg/kg | 1100 s⁻¹ | 6.48 | 5.9 | 5.45 | 1800 s⁻¹ |  |  |  |  |  |  |  | 
ClCCN(CCCl)c1ccc(SCCCCCNc2c3ccccc3nc3ccccc23)cc1 | 7.43 | 45 mg/kg | 5900 s⁻¹ | 6.44 | 19 | 6.15 | 16900 s⁻¹ | 23% |  |  |  |  |  |  | 
O=C(O)CCCc1ccc(N(CCCl)CCCl)cc1 [CHLORAMBUCIL] | 6.22 | 225 mg/kg |  |  | 58 |  |  |  | 37% | 4.59 | 5.17 |  |  |  | 
CCN(CC)CCCC(C)Nc1c2ccc(Cl)cc2nc2ccc(OC)cc12 (stereo not drawn) [QUINACRINE] | 6.85 |  |  |  | 11.5 | 5.77 |  |  |  |  |  |  |  |  | 
O=C(CCCCNc1c2ccccc2nc2ccccc12)Nc1ccc(N(CCCl)CCCl)cc1 | 7.10 | 45 mg/kg | 2900 s⁻¹ | 5.49 | 11.3 | 6.05 | 2500 s⁻¹ | 58% |  |  |  |  |  |  | 
O=C(NCCCCNc1c2ccccc2nc2ccccc12)c1ccc(N(CCCl)CCCl)cc1 | 6.17 | 20 mg/kg | 25700 s⁻¹ | 6.29 | 5.5 | 5.43 | 171000 s⁻¹ |  |  |  |  |  |  |  | 
O=S(=O)(CCCCCNc1c2ccccc2nc2ccccc12)c1ccc(N(CCCl)CCCl)cc1 |  | 45 mg/kg | 2800 s⁻¹ | 6.19 | 1 |  | 500 s⁻¹ | 33% |  |  |  | 6.24 | 6.24 |  | 
ClCCN(CCCl)c1ccc(OCCCCCNc2c3ccccc3nc3ccccc23)cc1 | 8.30 | 20 mg/kg | 100000 s⁻¹ | 7.40 | 46 | 6.68 | 115000 s⁻¹ |  |  |  |  |  |  | 28% | 
ClCCN(CCCl)c1ccc(CCCCCCNc2c3ccccc3nc3ccccc23)cc1 | 7.82 | 13.3 mg/kg | 33900 s⁻¹ | 6.89 | 36 | 6.28 | 157000 s⁻¹ |  |  |  |  |  |  |  | 22%
